Measurements published in ChEMBL document CHEMBL1137813, “An extract of Tagetes lucida and its phenolic constituents as antioxidants” (J Nat Prod, 2002).

These molecules were tested on Radical scavenging activity (assay: Antioxidant activity assessed as DPPH radical scavenging activity after 20 mins by UV-visible spectrophotometry).
Format: functional

With `C[C@@H]1O[C@@H](OC[C@H]2O[C@@H](Oc3c(-c4ccc(O)c(O)c4)oc4cc(O)cc(O)c4c3=O)[C@H](O)[C@@H](O)[C@@H]2O)[C@H](O)[C@H](O)[C@H]1O` [RUTIN] as the molecule, how does the EC50 read?
The EC50 was 4.8 µg.

For `O=c1c(O)c(-c2ccc(O)cc2)oc2cc(O[C@@H]3O[C@H](CO)[C@@H](O)[C@H](O)[C@H]3O)c(O)c(O)c12`, which EC50 is on record?
The EC50 was 6.9 µg.

With `O=C(O)/C=C/c1ccc(O)c(O)c1` [CAFFEIC ACID] as the molecule, how does the EC50 read?
Its EC50 is 3 µg.

Which EC50 does the source give for `O=C(O)c1cc(O)c(O)c(O)c1` [GALLIC ACID] here?
Its EC50 is 1.2 µg.

How did the EC50 turn out when `O=c1c(O)c(-c2ccc(O)c(O)c2)oc2cc(O[C@@H]3O[C@H](CO)[C@@H](O)[C@H](O)[C@H]3O)c(O)c(O)c12` was run?
Its EC50 is 4.6 µg.

Which EC50 does the source give for `O=c1c(O)c(-c2ccc(O)c(O)c2)oc2cc(O)cc(O)c12` [QUERCETIN] here?
The EC50 was 2.3 µg.

`Cc1c(C)c2c(c(C)c1O)CC[C@@](C)(CCC[C@H](C)CCC[C@H](C)CCCC(C)C)O2` [ALPHA-TOCOPHEROL] was tested. Which EC50 did it give?
The EC50 was 10.1 µg.

`O=c1c(O)c(-c2ccc(O)cc2)oc2cc(O)cc(O)c12` [KAEMPFEROL] was tested. Which EC50 did it give?
The EC50 was 4.4 µg.
